# Data: patent US20080107609A1, “PULMONARY DISEASE TREATMENT” (Schering Corporation, priority 2003, published 2008)
# Key:
# [1] = test system: patients suffering from chronic obstructive pulmonary disease; assay: Example 2: randomized double-blind parallel-group clinical trial of orally inhaled mometasone furoate vs placebo, FEV1 after salbutamol; format: in vivo, human; conditions: for ΔFEV1: corticosteroid-naive COPD patients, post-salbutamol; for mean change from baseline in ΔFEV1 over the twelve-month period: statistical analysis, increase
# Procedure: A randomized double-blind, parallel-group clinical trial was conducted to compare the effects of orally inhaled mometasone furoate and a placebo, in patients suffering from chronic obstructive pulmonary disease. The multiple dose dry powder inhaler and placebo inhaler described in the preceding example were used for this study. A total of 769 patients met the criteria for evaluability, from 95 sites in 11 countries. The patients had not previously been treated with corticosteroids, either inhaled or orally dosed, but otherwise met the criteria of the preceding example. In the study, patients were prescribed either two inhalations from the inhaler each evening, or one inhalation each morning and one inhalation each evening, with a twelve-month treatment duration. Results of the study were as follows, where the ΔFEV1 value represents the average of differences between the patients' FEV1 scores at the beginning of the study and the FEV1 scores at the time of the subsequent measurement, with all of the FEV1 testing being performed after administration of inhaled salbutamol. For each time point, the number of patients remaining in the study is given.
# [2] = test system: patients suffering from chronic obstructive pulmonary disease; assay: Example 1: randomized double-blind clinical trial of orally inhaled mometasone furoate vs placebo, FEV1 after salbutamol; format: in vivo, human; conditions: for ΔFEV1: dry powder inhaler, COPD patients previously on inhaled corticosteroid, average change from study start, post-salbutamol
# Procedure: A randomized, double-blind crossover clinical trial was conducted to compare the effects of orally inhaled mometasone furoate and a placebo, in patients suffering from chronic obstructive pulmonary disease. The drug was delivered from a multiple-dose dry powder inhaler charged with a mixture of mometasone furoate and lactose (having a component weight ratio of 1:5.8) in an agglomerated form. Placebo inhaler units contained only the lactose powder. The drug-containing inhalers delivered the following mean amounts of mometasone furoate particles per inhalation, as measured using an Anderson Cascade Impactor (from Thermo Anderson, Smyrna, Ga. U.S.A.) at an air flow rate through the inhaler of 60 L/minute:
# Evaluable patients participating in the study numbered 578, all having been diagnosed with COPD of moderate severity, being at least 40 years of age, and also being maintained for at least three months prior to commencement of the study on daily inhalations of a corticosteroid drug (even though there was no regulatory agency-approved COPD therapy using an inhaled corticosteriod). […] The patients were enrolled at a total of 35 sites in 24 countries, and were prescribed two inhalations from the supplied inhaler device each evening for a twelve-month period, with evaluations by a physician after 1, 3, 6, 9, and 12 months of participation. A total of 294 of the patients were randomized to receive inhalers containing the drug, while 284 patients received placebo inhalers. All of the patients were permitted to further use inhaled salbutamol as needed.
# Results of the study were as follows, where the ΔFEV1 value represents the average of differences between the patients' FEV1 scores at the beginning of the study and the FEV1 scores at the time of the subsequent measurement, with all of the FEV1 testing being performed after administration of inhaled salbutamol. For each time point, the number of patients remaining in the study is given.
# From a statistical analysis of the data, it was determined that the mean change from baseline over the twelve-month period was an increase in ΔFEV1 of 4 mL for patients receiving the mometasone furoate, and a decrease of 36 mL for placebo patients.
structure (smiles),measurement,setting,value
"C[C@@H]1C[C@H]2[C@@H]3CCC4=CC(=O)C=C[C@]4(C)[C@@]3(Cl)[C@@H](O)C[C@]2(C)[C@@]1(OC(=O)c1ccco1)C(=O)CCl [mometasone furoate, 9α,21-Dichloro-11β,17-dihydroxy-16α-methylpregna-1,4-diene-3,20-dione 17-(2-furoate)]",ΔFEV1,"[1]; Once Daily (two inhalations each evening), 1 month",66 mL
same,ΔFEV1,"[1]; Once Daily (two inhalations each evening), 3 months",57 mL
same,ΔFEV1,"[1]; Once Daily (two inhalations each evening), 6 months",44 mL
same,ΔFEV1,"[1]; Once Daily (two inhalations each evening), 9 months",37 mL
same,ΔFEV1,"[1]; Once Daily (two inhalations each evening), 12 months",38 mL
same,ΔFEV1,"[1]; Twice Daily (one inhalation each morning and one each evening), 1 month",72 mL
same,ΔFEV1,"[1]; Twice Daily (one inhalation each morning and one each evening), 3 months",79 mL
same,ΔFEV1,"[1]; Twice Daily (one inhalation each morning and one each evening), 6 months",36 mL
same,ΔFEV1,"[1]; Twice Daily (one inhalation each morning and one each evening), 9 months",58 mL
same,ΔFEV1,"[1]; Twice Daily (one inhalation each morning and one each evening), 12 months",31 mL
same,mean change from baseline in ΔFEV1 over the twelve-month period,[1]; dosed once daily,50 mL
same,mean change from baseline in ΔFEV1 over the twelve-month period,[1]; dosed twice daily,53 mL
same,pulmonary function over the trial period (FIG. 2),"[1]; twelve months, once daily and twice daily",generally improved their pulmonary function
same,comparison of both mometasone furoate treatments (once and twice daily) with placebo,"[1]; twelve-month period, ΔFEV1",statistically significantly superior to the placebo treatment
same,ΔFEV1,"[2]; 1 month, two inhalations each evening",5 mL
same,ΔFEV1,"[2]; 3 months, two inhalations each evening",9 mL
same,ΔFEV1,"[2]; 6 months, two inhalations each evening",-2 mL
same,ΔFEV1,"[2]; 9 months, two inhalations each evening",22 mL
same,ΔFEV1,"[2]; 12 months, two inhalations each evening",7 mL
same,difference between treatments (drug vs placebo) in mean ΔFEV1 change,"[2]; longitudinal analysis of variance model, twelve-month period",statistically significant
same,mean change from baseline in ΔFEV1 over the twelve-month period,"[2]; statistical analysis (longitudinal analysis of variance), two inhalations each evening, increase",4 mL
same,pulmonary function over the trial period (FIG. 1),"[2]; twelve months, two inhalations each evening",generally maintained or slightly improved their pulmonary function
